The results in this text go back to PubChem BioAssay AID588428 (NMMLSC, 2011).

SMILES strings stand for the structures. Active and inactive are the calls of the source.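 The calls were made as follows: active = compounds whose thermal stabilization response is above zero, meaning they raise the protein's melting point; inactive = the rest.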

The target in this experiment is Beta-adrenergic receptor kinase 1 (Homo sapiens) (UniProt P25098). The experiment can be described thus: direct GRK2 binders by thermal shift, orthogonal assay for GRK2 aptamer-displacement inhibitor project, biophysical, Thermofluor, set 1 (AID 588428). As to conditions: purified GRK2 thermal shift, ANS fluorescence; at 200 µM; stronger effect = higher value. On the technique in general: Differential scanning fluorimetry follows unfolding on heating by fluorescence.
Sequence of Beta-adrenergic receptor kinase 1 (Homo sapiens) (P25098 whole entry, looked up): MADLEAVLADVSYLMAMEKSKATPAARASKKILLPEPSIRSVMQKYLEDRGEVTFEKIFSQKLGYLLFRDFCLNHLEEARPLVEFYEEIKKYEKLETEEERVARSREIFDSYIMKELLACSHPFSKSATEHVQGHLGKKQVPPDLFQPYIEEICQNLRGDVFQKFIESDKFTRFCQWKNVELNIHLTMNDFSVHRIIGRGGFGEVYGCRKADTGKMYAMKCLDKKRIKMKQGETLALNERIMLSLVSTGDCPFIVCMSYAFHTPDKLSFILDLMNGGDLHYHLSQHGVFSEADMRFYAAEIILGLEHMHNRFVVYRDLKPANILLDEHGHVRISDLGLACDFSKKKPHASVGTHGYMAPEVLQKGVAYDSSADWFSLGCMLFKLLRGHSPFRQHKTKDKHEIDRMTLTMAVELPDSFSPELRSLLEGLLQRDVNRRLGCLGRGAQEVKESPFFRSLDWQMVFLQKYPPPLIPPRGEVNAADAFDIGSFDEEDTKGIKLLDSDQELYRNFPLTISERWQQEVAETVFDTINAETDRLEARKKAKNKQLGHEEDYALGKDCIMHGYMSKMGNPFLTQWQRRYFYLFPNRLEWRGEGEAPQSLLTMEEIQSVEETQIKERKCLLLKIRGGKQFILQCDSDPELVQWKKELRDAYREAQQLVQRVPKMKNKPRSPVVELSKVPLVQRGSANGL
As to `Cc1ccccc1NC(=O)CCS(=O)(=O)c1ccc(Br)cc1`, the thermal stabilization response was 108%.
On to `Cc1cc(=O)[nH]c(SCC(=O)NCc2ccco2)n1`, for which the thermal stabilization response is -79.1% (inactive).
Turning to `O=C(CCS(=O)(=O)c1ccc(Br)cc1)Nc1cc(F)ccc1F`, the thermal stabilization response was -75% (inactive).
As to `O=C(O)C1CC(=O)N(c2ccc3c(c2)OCCO3)C1` (stereo not given), the thermal stabilization response is -152% (inactive).
`CCOc1ccc(CCNC(=O)CCS(=O)(=O)c2ccc(Br)cc2)cc1OCC`: the thermal stabilization response was -112% (inactive).
As to `COc1ccc(CNC(=O)CCS(=O)(=O)c2ccc(Br)cc2)cc1`, the thermal stabilization response was -114% (inactive).
As for `Cc1cccc(N2CCN(C(=O)CCS(=O)(=O)c3ccc(Br)cc3)CC2C)c1` (stereo not given), the thermal stabilization response is -5.78% (inactive).
On to `Cc1cc2ccccc2n1CCNC(=O)c1cccs1`, for which the thermal stabilization response is -176% (inactive).
With `CCc1ccccc1NC(=O)CCS(=O)(=O)c1ccc(Br)cc1`, the thermal stabilization response was -35.6% (inactive).
Consider `O=C(CCS(=O)(=O)c1ccc(Br)cc1)NCCc1ccc(Cl)cc1`, for which the thermal stabilization response is -53% (inactive).
